From patent US9649313B2, “Use of ITK inhibitors for the treatment of cancer” (The University of North Carolina at Chapel Hill, priority 2012, dated 2017)

Key:
[1] = test system: A375 (ITKINT) melanoma cell line; test: proliferation assay (cell counts); format: cell-based, Human; conditions: 50 nM
Protocol: (§1) FIG. 5A-5C. Effects of BI 10N inhibitor on proliferation and motility of melanoma cells. FIG. 5A) Cell motility assays were performed as described in FIG. 4A-4E; however, the inhibitor BI 10N was added to the media to decrease ITK kinase activity in parental cell lines instead of using the shRNA ITK knockdown cell lines. BI 10N was added to the media 24 hours prior to the start of the motility assay and the VivaView camera system was used to image cellular motility of the melanoma cells as described previously. FIG. 5B) The proliferation assays were completed as described in FIG. 4A-4E, substituting the BI 10N compound for the shRNA. Cells were trypsinized and counted using the Invitrogen Countess. Fifty thousand cells were placed into each well of a 6 well plate and BI 10N was added to the indicated concentrations. The cells were counted with the Invitrogen Countess at 3, 5, and 6 or 7 days after plating to assess the proliferation rates of the different cell lines in the presence of BI 10N. FIG. 5C) Both ITKHI (RPMI 8322) and ITKLO (PMWK) melanoma cell lines were grown in the presence of BI 10N (10-200 nM) in soft agar. In 24-well cell culture plates 2,500 cells per well were added to a 1.4% agarose solution. The agarose and cell solution was then poured on top of a solidified base agar. The cells were incubated at 37° C. for three to four weeks to ensure adequate growth before analysis. FIG. 5D) Cell cycle analysis of PMWK, VMM 39, and RPMI 8322 cells that have been treated with increasing concentrations of BI 10N. Following 3 days of BI 10N treatment, the cells were incubated with EdU for 3 hours and were subsequently assessed for 5-ethynyl-2′-deoxyuridine (EdU) incorporation rate and DNA content with FxCycle Violet. […]
(§2) Human melanoma cell lines were plated onto 10 cm^2 6 well dishes at a density of 50,000 cells per well. […] Five hundred […] of media was added to the cell suspension, the cells were removed from the well and then counted using the Countess® Automated Cell Counter from Life Technologies (cat #C10227). […]

[2] = test system: SKMEL 131 (ITKLO) melanoma cell line; test: proliferation assay (cell counts); format: cell-based, Human; conditions: inhibitor as high as 150 nM
Protocol: as §1, §2

[3] = test system: SKMEL 153 (ITKHI) melanoma cell line; test: proliferation assay (cell counts); format: cell-based, Human; conditions: 50 nM
Protocol: as §1, §2

[4] = test system: ERK and AKT activation status in VMM 39 cells; test: western blot of ERK and AKT activation; format: cell-based, Human; conditions: concentrations as high as 50 nM, 3 days
Protocol: FIG. 9. Western blots of phospho-ERK and phospho-AKT.
To investigate the impact of ITK inhibition by BI 10N on the ERK and AKT signaling pathways, which are frequently misregulated in melanoma, the ITKHI melanoma cell lines (VMM 39 and RPMI 8322) were grown in the presence of increasing BI 10N concentrations. Western blot analysis was performed on whole cell lysates from these cells using antibodies against ERK, pERK^Thr202/Tyr204, AKT, and pAKT^Ser473.

[5] = test system: A375 (ITKINT) xenograft tumors; test: melanoma xenograft mouse model; format: in vivo, nude mice; conditions: 15 mg per kg in food
Protocol: (§3) FIG. 6A-6F. Effects of BI 10N inhibitor on growth of melanoma xenografts in vivo. FIG. 6A-6C) Cell lines RPMI 8322 (ITKHI), VMM 39 (ITKHI), and A375 (ITKINT) were grown as described previously, suspended in matrigel and injected into the flanks of nude mice as described in the Materials and Methods section. The mice received either BI 10N at a concentration of 15 mpk or no treatment. Mice were then followed to assess the effect of the treatments on tumor progression. FIG. 6D-6F) Effect of BI 10N (15mpk) on tumor growth (mean and standard error of mean) in A375, RPMI 8322, and VMM 39 melanoma xenografts. […] Samples sizes are indicated in parentheses.
(§4) Nude athymic animals were acquired through the UNC Animal Studies Core and are similar to Jackson Labs (strain 000819). Mice were aged to 10 weeks and inoculated in the hind flank with 500K cells suspended in a 50/50 solution of Hank's Solution plus 2% FBS and matrigel (BD cat#356234). Once weekly caliper measurements of the length and width of the tumors were recorded; volume was then calculated using the formula ((L^2)×W)/2. Treatment began when a tumor reached an approximate size of 60 mm^3. Mice received compounds orally via admixture with standard rodent diet (Research Diets, Inc; New Brunswick, N.J.) or the same diet for non-treated mice as per MP1U (mouse phase I unit) protocol (Roberts et al., 2012 Clin Cancer Res 18(19):5290-5303). Tissues were cut in half and either flash frozen and then stored at −80 or formalin-fixed/paraffin embedded.

[6] = test system: RPMI 8322 (ITKHI) xenograft tumors; test: melanoma xenograft mouse model; format: in vivo, nude mice; conditions: RPMI 8322 xenograft; 15 mg per kg in food
Protocol: as §3, §4

[7] = test system: VMM 39 (ITKHI) xenograft tumors; test: melanoma xenograft mouse model; format: in vivo, nude mice; conditions: VMM 39 xenograft; 15 mg per kg in food
Protocol: as §3, §4

[8] = test system: PD-L expression in the melanoma cells; test: PD-L expression in melanoma cells; format: cell-based
Description: In addition, we report a correlation between PD-L and ITK protein expression and also found a significant correlation between activated Akt and PD-L protein levels (data not shown). […] These observations are consistent with PI3K regulating PD-L expression, Akt or Erk activation and ITK protein levels (Davies, 2012; Jiang and Liu 2008 Biochim Biophys Acta 1784, 150-158; Parsa et al., 2007 Nat Med 13, 84-88)

56 protein kinases = test: cell-free kinase selectivity panel; format: biochemical; conditions: versus 51 of the 56 protein kinases tested
Description: To assess the effect of pharmacologic inhibition of ITK activity in melanoma preclinical models, we used BI 10N, which has been previously shown to inhibit ITK's phosphoryl-transfer activities (Kashem et al., 2007; Riether et al., 2009). We investigated the potency and selectivity of BI 10N against 56 kinases using a cell-free assay (Table 8A).

cytokine production = conditions: anti-CD3 antibody stimulated Balb/c mice; Riether et al., 2009; cited from earlier work

CC(C)C(C)CNCc1ccc2c(c1)[nH]/c(=N\C(=O)c1ccc(C3=CN=NC3)s1)n2CC(C)(C)O (stereo not shown) [BI 10N]
effect on proliferation [1]: decreased similarly to the ITKHI cell lines | effect on doubling time [2]: did not increase their doubling time | increase in doubling time [3]: about 50% | activation status of ERK and AKT [4]: No significant effects | tumor growth [5]: did not slow | tumor growth [6]: significantly slowed | tumor growth [7]: significantly slowed | expression of PD-L [8]: did not change | selectivity for ITK over other protein kinases (56 protein kinases): at least 1000 fold | cytokine production in vivo (cytokine production): decrease cytokine production
